Biological target: T1, cytoplasmic kinase domain of human IGF-1R (IGF-1R-GST) (Homo sapiens, UniProt P08069)
T1 construct: cytoplasmic kinase domain of human IGF-1R (amino acids 964-1370); GST (glutathione-S-transferase); made in house; host or cells: High Five insect cells (Invitrogen)
Assay: Insulin-like growth factor-1 receptor (IGF-1R) kinase assay (DELFIA)
Format: biochemical
Settings: IGF-1R-GST kinase activity, read-out: IGF1R IC50
Description: Insulin-Like Growth Factor-1 Receptor (IGF-1R)-Kinase Assay
The kinase activity is measured by DELFIA® assay (dissociation-enhanced lanthanide fluorescence immunoassay, Perkin Elmer). […] Enzyme activity is measured in the presence of substances and a control substance. Poly-glutamate-tyrosine peptide (pEY, Sigma Aldrich) and biotinylated pEY (bio-pEY) are used as reaction substrates.
After 40 min at RT the reactions are stopped with 50 μL of stop solution (250 mM EDTA, 20 mM HEPES pH 7.4). 90 μL from each reaction are transferred onto streptavidin-coated 96-well plates. After 120 min incubation at RT the plates are washed three times with 200 μL phosphate-buffered saline (PBS) per well. The plates are incubated for 60 min with 100 μL of europium-coupled antibody against phospho-tyrosine (diluted 1/2000 in Perkin Elmer DELFIA assay buffer) per well. The plates are washed three times with 200 μL per well of DELFIA washing buffer. 100 μL DELFIA Enhancement Solution (Perkin Elmer) is added to each well, and the plates are incubated for 10 min. The fluorescence signal is measured with a Wallac Victor TRF Reader. IC50 values for the inhibition of the IGF-1R-kinase activity are calculated using the programmes Fifty (Version 2) and GraphPad (Version 3.0).

T1 sequence (P08069 964-1367 limits assumed): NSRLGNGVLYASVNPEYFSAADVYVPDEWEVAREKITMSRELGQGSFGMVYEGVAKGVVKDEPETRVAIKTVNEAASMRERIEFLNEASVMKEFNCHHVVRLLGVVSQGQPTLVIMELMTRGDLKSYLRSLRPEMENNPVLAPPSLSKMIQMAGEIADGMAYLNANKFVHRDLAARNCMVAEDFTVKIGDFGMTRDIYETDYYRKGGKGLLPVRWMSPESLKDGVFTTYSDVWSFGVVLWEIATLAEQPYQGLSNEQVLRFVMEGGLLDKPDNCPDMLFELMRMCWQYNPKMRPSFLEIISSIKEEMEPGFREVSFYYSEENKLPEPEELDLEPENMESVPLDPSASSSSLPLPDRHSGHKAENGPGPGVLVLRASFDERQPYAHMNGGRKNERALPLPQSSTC

| Compound | IC50 [nM] |
| --- | --- |
| COCCNC1CCN(c2ccc(Nc3ncc(C(F)(F)F)c(NCc4cccc5c4C(C)(C)C(=O)N5)n3)c(OC)c2)CC1 [Example I-167] | 0.2 |
| COCCCN(C)C1CCN(c2ccc(Nc3ncc(C(F)(F)F)c(NCc4cccc5c4C(C)(C)C(=O)N5)n3)c(OC)c2)CC1 [Example I-168] | 0.2 |
| COc1cc(N2CCC(N(C)CCO)CC2)ccc1Nc1ncc(C(F)(F)F)c(NCc2cccc3c2C(C)(C)C(=O)N3)n1 [Example I-169] | 0.26 |
| COc1cc(N2CCC(N3CCC(OC)CC3)CC2)ccc1Nc1ncc(C(F)(F)F)c(NCc2cccc3c2C(C)(C)C(=O)N3)n1 [Example I-170] | 0.33 |
| COc1cc(N2CCC(N3CC[C@H](O)C3)CC2)ccc1Nc1ncc(C(F)(F)F)c(NCc2cccc3c2C(C)(C)C(=O)N3)n1 [Example I-172] | 0.4 |
| COc1cc(N2CCC(NCC(C)(C)OC)CC2)ccc1Nc1ncc(C(F)(F)F)c(NCc2cccc3c2C(C)(C)C(=O)N3)n1 [Example I-173] | 0.46 |
| COc1cc(N2CCC(N3CC[C@@H](O)C3)CC2)ccc1Nc1ncc(C(F)(F)F)c(NCc2cccc3c2C(C)(C)C(=O)N3)n1 [Example I-174] | 0.81 |
| COCCN(C)C1CCN(c2ccc(Nc3ncc(C(F)(F)F)c(NCc4cccc5c4C(C)(C)C(=O)N5)n3)c(OC)c2)CC1 [Example I-175] | 0.87 |
| COc1cc(N2CCC(N3CCC3)CC2)ccc1Nc1ncc(C(F)(F)F)c(NCc2cccc3c2C(C)(C)C(=O)N3)n1 [Example I-176] | 0.98 |
| COc1cc(N2CCC(N3CCC(O)CC3)CC2)ccc1Nc1ncc(C(F)(F)F)c(NCc2cccc3c2C(C)(C)C(=O)N3)n1 [Example I-177] | 1 |
| COc1cc(N2CCC(N(C)CCN(C)C)CC2)ccc1Nc1ncc(C(F)(F)F)c(NCc2cccc3c2CC(=O)N3)n1 [Example I-178] | 2 |
| COCCNC1CCN(c2ccc(Nc3ncc(C(F)(F)F)c(NCc4cccc5c4CC(=O)N5)n3)c(OC)c2)CC1 [Example I-179] | 2 |
| COc1cc(N2CCC(N3CCCC3)CC2)ccc1Nc1ncc(C(F)(F)F)c(NCc2cccc3c2C(C)(C)C(=O)N3)n1 [Example I-180] | 2 |
| COc1cc(N2CCC(N(C)C)CC2)ccc1Nc1ncc(C(F)(F)F)c(NCc2cccc3c2C(C)(C)C(=O)N3)n1 [Example I-181] | 2 |
| COc1cc(N2CCC(NCCCN(C)C)CC2)ccc1Nc1ncc(C(F)(F)F)c(NCc2cccc3c2CC(=O)N3)n1 [Example I-183] | 3 |
| COc1cc(N2CCC(N(C)CCCN(C)C)CC2)ccc1Nc1ncc(C(F)(F)F)c(NCc2cccc3c2CC(=O)N3)n1 [Example I-185] | 4 |
| COc1cc(N2CCC(N(C)CCO)CC2)ccc1Nc1ncc(C(F)(F)F)c(NCc2cccc3c2CC(=O)N3)n1 [Example I-186] | 4 |
| COc1cc(N2CCC(NCCO)CC2)ccc1Nc1ncc(C(F)(F)F)c(NCc2cccc3c2CC(=O)N3)n1 [Example I-191] | 6 |
| COc1cc(N2CCC(NCCN(C)C)CC2)ccc1Nc1ncc(C(F)(F)F)c(NCc2cccc3c2CC(=O)N3)n1 [Example I-194] | 7 |
| COCCN(C)C1CCN(c2ccc(Nc3ncc(C(F)(F)F)c(NCc4cccc5c4CC(=O)N5)n3)c(OC)c2)CC1 [Example I-197] | 9 |

| Compound | IC50 [nM] |
| --- | --- |
| CC1(C)C(=O)Nc2cccc(CNc3nc(Nc4ccc(C5CCN(CCO)CC5)cc4)ncc3Cl)c21 [Example I-205] | 2 |
| CNC(=O)CN1CCC(c2ccc(Nc3ncc(Cl)c(NCc4cccc5c4C(C)(C)C(=O)N5)n3)cc2)CC1 [Example I-206] | 5 |
| CC1(C)C(=O)Nc2cccc(CNc3nc(Nc4ccc(C5CCN(CCS(C)(=O)=O)CC5)cc4)ncc3Cl)c21 [Example I-207] | 10 |
| CNC(=O)CN1CCC(c2ccc(Nc3ncc(Cl)c(NCc4cccc5c4C(C)(C)C(=O)N5)n3)c(C)c2)CC1 [Example I-219] | 2 |
| COc1cc(N2CCN(CCF)CC2)ccc1Nc1ncc(C(F)(F)F)c(NCc2cccc3c2CC(=O)N3)n1 [Example I-222] | 32 |
| COc1cc(N2CCN(CCO)CC2)ccc1Nc1ncc(C(F)(F)F)c(NCc2cccc3c2CC(=O)N3)n1 [Example I-223] | 18 |
| COCCN1CCN(c2ccc(Nc3ncc(C(F)(F)F)c(NCc4cccc5c4CC(=O)N5)n3)c(OC)c2)CC1 [Example I-224] | 18 |
| CCN1CCC(NC(=O)c2ccc(Nc3ncc(C(F)(F)F)c(NCc4cccc5c4C(C)(C)C(=O)N5)n3)c(OC)c2)CC1 [Example I-225] | 2 |
| COc1cc(N2CCC(C(=O)NC3CCN(C)CC3)CC2)ccc1Nc1ncc(C(F)(F)F)c(NCc2cccc3c2C(C)(C)C(=O)N3)n1 [Example I-226] | 2 |
| CNC(=O)C1CCN(c2ccc(Nc3ncc(C(F)(F)F)c(NCc4cccc5c4C(C)(C)C(=O)N5)n3)c(OC)c2)CC1 [Example I-227] | 5 |
| COc1cc(C(=O)NC2CCN(C)CC2)ccc1Nc1ncc(C(F)(F)F)c(NCc2cccc3c2C(C)(C)C(=O)N3)n1 [Example I-228] | 8 |
| CCN1CCC(NC(=O)c2ccc(Nc3ncc(C(F)(F)F)c(NCc4cccc5c4CC(=O)N5)n3)c(OC)c2)CC1 [Example I-229] | 12 |
| COc1cc(N2CCC(C(=O)N(C)C)CC2)ccc1Nc1ncc(C(F)(F)F)c(NCc2cccc3c2C(C)(C)C(=O)N3)n1 [Example I-230] | 13 |
| COc1cc(C(=O)NC2CCN(C)CC2)ccc1Nc1ncc(C(F)(F)F)c(NCc2cccc3c2C(C)(C)C(=O)N3C)n1 [Example I-231] | 15 |
| COc1cc(C(=O)NCCN2CCCC2)ccc1Nc1ncc(C(F)(F)F)c(NCc2cccc3c2CC(=O)N3)n1 [Example I-232] | 47 |
| CCC1(CC)C(=O)Nc2cccc(CNc3nc(Nc4ccc(C(=O)NC5CCN(C)CC5)cc4OC)ncc3C(F)(F)F)c21 [Example I-233] | 58 |
| COc1cc(C(=O)N2CCOCC2)ccc1Nc1ncc(C(F)(F)F)c(NCc2cccc3c2C(C)(C)C(=O)N3)n1 [Example I-234] | 8 |
| COc1cc(N2CCNCC2)ccc1Nc1ncc(Cl)c(NCc2cccc3c2C(C)(C)C(=O)N3)n1 [Example I-254] | 2.2 |
| CC(C)(O)CN1CCC(c2ccc(Nc3ncc(C(F)(F)F)c(NCc4cccc5c4C(C)(C)C(=O)N5)n3)c3c2OCO3)CC1 [Example I-315] | 1.9 |

Other lines, results leading:

| IC50 [nM] | Compound |
| --- | --- |
| 4 | COc1cc(N2CCN(CC3CC3)CC2)ccc1Nc1ncc(C(F)(F)F)c(NCc2cccc3c2CC(=O)N3)n1 [Example I-165] |
| 11 | CCOC(=O)N1CCC(N2CCN(c3ccc(Nc4ncc(C(F)(F)F)c(NCc5cccc6c5CC(=O)N6)n4)c(OC)c3)CC2)CC1 [Example I-166] |
| 0.38 | COc1cc(N2CCC(N3CCOCC3)CC2)ccc1Nc1ncc(C(F)(F)F)c(NCc2cccc3c2C(C)(C)C(=O)N3)n1 [Example I-171] |
| 3 | COc1cc(N2CCC(N3CCC(N(C)C)CC3)CC2)ccc1Nc1ncc(C(F)(F)F)c(NCc2cccc3c2CC(=O)N3)n1 [Example I-182] |
| 4 | COc1cc(N2CCC(N(C)C)CC2)ccc1Nc1ncc(C(F)(F)F)c(NCc2cccc3c2CC(=O)N3)n1 [Example I-184] |
| 4 | CNC1CCN(c2ccc(Nc3ncc(C(F)(F)F)c(NCc4cccc5c4CC(=O)N5)n3)c(OC)c2)CC1 [Example I-187] |
| 5 | COc1cc(N2CCC(N3CCC(O)CC3)CC2)ccc1Nc1ncc(C(F)(F)F)c(NCc2cccc3c2CC(=O)N3)n1 [Example I-188] |
| 5 | COc1cc(N2CCC(N3CCCC3)CC2)ccc1Nc1ncc(C(F)(F)F)c(NCc2cccc3c2CC(=O)N3)n1 [Example I-189] |
| 6 | COc1cc(N2CCC(N3CCN(C4CC4)CC3)CC2)ccc1Nc1ncc(C(F)(F)F)c(NCc2cccc3c2CC(=O)N3)n1 [Example I-190] |
| 6 | COc1cc(N2CCC(N3CCC(OC)CC3)CC2)ccc1Nc1ncc(C(F)(F)F)c(NCc2cccc3c2CC(=O)N3)n1 [Example I-192] |
| 7 | COc1cc(N2CCC(N3CCN(C4CCN(C)CC4)CC3)CC2)ccc1Nc1ncc(C(F)(F)F)c(NCc2cccc3c2CC(=O)N3)n1 [Example I-193] |
| 7 | COc1cc(N2CCC(N3CCC(C#N)CC3)CC2)ccc1Nc1ncc(C(F)(F)F)c(NCc2cccc3c2CC(=O)N3)n1 [Example I-195] |
| 8 | COc1cc(N2CCC(N3CCOCC3)CC2)ccc1Nc1ncc(C(F)(F)F)c(NCc2cccc3c2CC(=O)N3)n1 [Example I-196] |
| 11 | COc1cc(N2CCC(N3CCN(C(C)C)CC3)CC2)ccc1Nc1ncc(C(F)(F)F)c(NCc2cccc3c2CC(=O)N3)n1 [Example I-198] |
| 11 | COc1cc(N2CCC(N3CCC(F)(F)CC3)CC2)ccc1Nc1ncc(C(F)(F)F)c(NCc2cccc3c2CC(=O)N3)n1 [Example I-199] |
| 13 | COc1cc(N2CCC(N3CCN(C4CCOCC4)CC3)CC2)ccc1Nc1ncc(C(F)(F)F)c(NCc2cccc3c2CC(=O)N3)n1 [Example I-200] |
| 20 | COc1cc(N2CCC(N3CCN(C(C)=O)CC3)CC2)ccc1Nc1ncc(C(F)(F)F)c(NCc2cccc3c2CC(=O)N3)n1 [Example I-201] |
| 24 | COc1cc(N2CCC(N3CCN(C)CC3)CC2)ccc1Nc1ncc(C(F)(F)F)c(NCc2cccc3c2CC(=O)N3)n1 [Example I-202] |
| 21 | COc1cc(N2CCC(O)CC2)ccc1Nc1ncc(C(F)(F)F)c(NCc2cccc3c2CC(=O)N3)n1 [Example I-237] |

— US8546443B2, “Benzylic oxindole pyrimidines” (Boehringer Ingelheim International GmbH, priority 2010, dated 2013)
